We go through 29 compounds from US9365584B2, “Thieno [2,3-B] pyridinedione activators of AMPK and therapeutic uses thereof” (Poxel, priority 2009, dated 2016).

The first experiment deals with AMPK. The experiment in a line: AMPK enzyme activity assay (Delfia technology, AMARA peptide substrate). The experiment is classed as biochemical. Conditions: compound at 30 μM vs AMP at 200 μM. The procedure, abridged: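 Value is the ratio of compound (30 μM) to AMP (200 μM) response, each as % of basal control. Phosphorylation of the AMARA peptide after AMPK addition was read by Delfia with an anti-phosphoserine antibody.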
For `O=C1Nc2sc(Cl)c(-c3ccccc3)c2C(=O)C1(F)c1cccc(C(F)(F)F)c1` (stereo not shown) [No 95, 2-chloro-5-fluoro-3-phenyl-5-[3-(trifluoro-methyl)phenyl]-7H-thieno[2,3-b]pyridine-4,6-dione], the “Activity: Ratio between the % of control (basal activity) of compound of formula (1) at 30 μM and the % of control (basal activity) of AMP (natural substrate) at 200 μM” value (“Activity: Ratio between the % of control” for short) was “B (50%≦B<75%)”.

With `COc1ccc(-c2c(Cl)sc3c2C(=O)C(C)(c2ccc(C)cc2)C(=O)N3)cc1` (stereo not shown) [No 96, 2-chloro-3-(4-methoxyphenyl)-5-methyl-5-(p-tolyl)-7H-thieno[2,3-b]pyridine-4,6-dione], the “Activity: Ratio between the % of control” value was “A (0%<A<50%)”.

With `CS(=O)(=O)c1ccc(C2(F)C(=O)Nc3sc(Cl)c(-c4ccccc4)c3C2=O)cc1` (stereo not shown) [No 97, 2-chloro-5-fluoro-5-(4-methylsulfonylphenyl)-3-phenyl-7H-thieno[2,3-b]pyridine-4,6-dione], the “Activity: Ratio between the % of control” value is “C (C≧75%)”.

Consider `COc1ccccc1-c1c(Cl)sc2c1C(=O)C(F)(c1ccccc1)C(=O)N2` (stereo not shown) [No 98, 2-chloro-5-fluoro-3-(2-methoxyphenyl)-5-phenyl-7H-thieno[2,3-b]pyridine-4,6-dione], for which the “Activity: Ratio between the % of control” value was “A (0%<A<50%)”.

In the case of `COc1ccccc1C1(F)C(=O)Nc2sc(Cl)c(-c3ccc(F)cc3O)c2C1=O` (stereo not shown) [No 99, 2-chloro-5-fluoro-3-(4-fluoro-2-hydroxy-phenyl)-5-(2-methoxyphenyl)-7H-thieno[2,3-b]pyridine-4,6-dione], the “Activity: Ratio between the % of control” value is on record as “C (C≧75%)”.

Turning to `O=C1Nc2scc(-c3ccccc3)c2C(=O)C1(F)c1ccccc1` (stereo not shown) [No 100, 5-fluoro-3,5-diphenyl-7H-thieno[2,3-b]pyridine-4,6-dione], the “Activity: Ratio between the % of control” value is reported as “B (50%≦B<75%)”.

For the compound `O=C1Nc2sc(Cl)c(-c3ccccc3Cl)c2C(=O)C1(F)c1ccccc1` (stereo not shown) [No 101, 2-chloro-3-(2-chlorophenyl)-5-fluoro-5-phenyl-7H-thieno[2,3-b]pyridine-4,6-dione], the “Activity: Ratio between the % of control” value is listed as “B (50%≦B<75%)”.

Consider `Cc1c(F)ccc(-c2csc3c2C(=O)C(F)(c2ccccc2)C(=O)N3)c1O` (stereo not shown) [No 102, 5-fluoro-3-(4-fluoro-2-hydroxy-3-methyl-phenyl)-5-phenyl-7H-thieno[2,3-b]pyridine-4,6-dione], for which the “Activity: Ratio between the % of control” value is on record as “C (C≧75%)”.

For `CC1(c2cccc(F)c2)C(=O)Nc2sc(Cl)c(-c3cccc(F)c3)c2C1=O` (stereo not shown) [No 103, 2-chloro-3,5-bis(3-fluorophenyl)-5-methyl-7H-thieno[2,3-b]pyridine-4,6-dione], the “Activity: Ratio between the % of control” value is listed as “A (0%<A<50%)”.

With `CC1(c2ccccc2F)C(=O)Nc2sc(Cl)c(-c3cccc(F)c3)c2C1=O` (stereo not shown) [No 104, 2-chloro-5-(2-fluorophenyl)-3-(3-fluorophenyl)-5-methyl-7H-thieno[2,3-b]pyridine-4,6-dione], the “Activity: Ratio between the % of control” value is on record as “B (50%≦B<75%)”.

As for `COc1cccc(C2(C)C(=O)Nc3sc(Cl)c(-c4cccc(F)c4)c3C2=O)c1` (stereo not shown) [No 105, 2-chloro-3-(3-fluorophenyl)-5-(3-methoxyphenyl)-5-methyl-7H-thieno[2,3-b]pyridine-4,6-dione], the “Activity: Ratio between the % of control” value is given as “A (0%<A<50%)”.

As for `Cc1cccc(C2(C)C(=O)Nc3sc(Cl)c(-c4cccc(F)c4)c3C2=O)c1` (stereo not shown) [No 106, 2-chloro-3-(3-fluorophenyl)-5-methyl-5-(m-tolyl)-7H-thieno[2,3-b]pyridine-4,6-dione], the “Activity: Ratio between the % of control” value was “A (0%<A<50%)”.

As to `COc1ccccc1-c1c(Cl)sc2c1C(=O)C(C)(c1ccccc1)C(=O)N2` (stereo not shown) [No 107, 2-chloro-3-(2-methoxyphenyl)-5-methyl-5-phenyl-7H-thieno[2,3-b]pyridine-4,6-dione], the “Activity: Ratio between the % of control” value was “A (0%<A<50%)”.

For the compound `Cc1c(F)ccc(-c2csc3c2C(=O)C(F)(c2ccc(F)cc2)C(=O)N3)c1O` (stereo not shown) [No 108, 5-fluoro-3-(4-fluoro-2-hydroxy-3-methyl-phenyl)-5-(4-fluorophenyl)-7H-thieno[2,3-b]pyridine-4,6-dione], the “Activity: Ratio between the % of control” value is “C (C≧75%)”.

In the case of `Cc1ccc(C2(F)C(=O)Nc3scc(-c4ccc(F)cc4O)c3C2=O)cc1` (stereo not shown) [No 109, 5-fluoro-3-(4-fluoro-2-hydroxy-phenyl)-5-(p-tolyl)-7H-thieno[2,3-b]pyridine-4,6-dione], the “Activity: Ratio between the % of control” value is “C (C≧75%)”.

For `COc1cc(C)ccc1-c1csc2c1C(=O)C(F)(c1cccc(C#N)c1)C(=O)N2` (stereo not shown) [No 110, 3-[5-fluoro-3-(2-methoxy-4-methyl-phenyl)-4,6-dioxo-7H-thieno[2,3-b]pyridin-5-yl]benzonitrile], the “Activity: Ratio between the % of control” value is listed as “C (C≧75%)”.

Regarding `COc1cc(C)ccc1-c1c(F)sc2c1C(=O)C(F)(c1cccc(C#N)c1)C(=O)N2` (stereo not shown) [No 111, 3-[2,5-difluoro-3-(2-methoxy-4-methyl-phenyl)-4,6-dioxo-7H-thieno[2,3-b]pyridin-5-yl]benzonitrile], the “Activity: Ratio between the % of control” value is given as “C (C≧75%)”.

`COc1cccc(O)c1-c1csc2c1C(=O)C(F)(c1ccccc1)C(=O)N2` (stereo not shown) [No 112, 5-fluoro-3-(2-hydroxy-6-methoxy-phenyl)-5-phenyl-7H-thieno[2,3-b]pyridine-4,6-dione]: the “Activity: Ratio between the % of control” value is given as “A (0%<A<50%)”.

With `COc1cc(-c2csc3c2C(=O)C(F)(c2ccccc2)C(=O)N3)ccc1C` (stereo not shown) [No 113, 5-fluoro-3-(3-methoxy-4-methyl-phenyl)-5-phenyl-7H-thieno[2,3-b]pyridine-4,6-dione], the “Activity: Ratio between the % of control” value is reported as “B (50%≦B<75%)”.

For the compound `COc1cc(-c2c(F)sc3c2C(=O)C(F)(c2ccccc2)C(=O)N3)ccc1C` (stereo not shown) [No 114, 2,5-difluoro-3-(3-methoxy-4-methyl-phenyl)-5-phenyl-7H-thieno[2,3-b]pyridine-4,6-dione], the “Activity: Ratio between the % of control” value was “B (50%≦B<75%)”.

Turning to `Cc1ccc(-c2csc3c2C(=O)C(F)(c2ccccc2)C(=O)N3)cc1O` (stereo not shown) [No 115, 5-fluoro-3-(3-hydroxy-4-methyl-phenyl)-5-phenyl-7H-thieno[2,3-b]pyridine-4,6-dione], the “Activity: Ratio between the % of control” value was “C (C≧75%)”.

With `Cc1ccc(-c2c(F)sc3c2C(=O)C(F)(c2ccccc2)C(=O)N3)cc1O` (stereo not shown) [No 116, 2,5-difluoro-3-(3-hydroxy-4-methyl-phenyl)-5-phenyl-7H-thieno[2,3-b]pyridine-4,6-dione], the “Activity: Ratio between the % of control” value is listed as “C (C≧75%)”.

On to `Cc1ccc(C2(C)C(=O)Nc3sc(Cl)c(-c4cccc(C)c4)c3C2=O)cc1` (stereo not shown) [No 117, 2-chloro-5-methyl-3-(m-tolyl)-5-(p-tolyl)-7H-thieno[2,3-b]pyridine-4,6-dione], for which the “Activity: Ratio between the % of control” value was “A (0%<A<50%)”.

In the case of `COc1cc(C)ccc1-c1csc2c1C(=O)C(F)(c1ccccc1)C(=O)N2` (stereo not shown) [No 118, 5-fluoro-3-(2-methoxy-4-methyl-phenyl)-5-phenyl-7H-thieno[2,3-b]pyridine-4,6-dione], the “Activity: Ratio between the % of control” value was “B (50%≦B<75%)”.

In the case of `COc1cc(C)ccc1-c1c(F)sc2c1C(=O)C(F)(c1ccccc1)C(=O)N2` (stereo not shown) [No 119, 2,5-difluoro-3-(2-methoxy-4-methyl-phenyl)-5-phenyl-7H-thieno[2,3-b]pyridine-4,6-dione], the “Activity: Ratio between the % of control” value is recorded as “B (50%≦B<75%)”.

In the case of `CS(=O)(=O)c1cccc(-c2csc3c2C(=O)C(F)(c2ccccc2)C(=O)N3)c1` (stereo not shown) [No 120, 5-fluoro-3-(3-methylsulfonylphenyl)-5-phenyl-7H-thieno[2,3-b]pyridine-4,6-dione], the “Activity: Ratio between the % of control” value is on record as “A (0%<A<50%)”.

Consider `Cc1ccc(-c2csc3c2C(=O)C(F)(c2ccccc2)C(=O)N3)c(O)c1` (stereo not shown) [No 121, 5-fluoro-3-(2-hydroxy-4-methyl-phenyl)-5-phenyl-7H-thieno[2,3-b]pyridine-4,6-dione], for which the “Activity: Ratio between the % of control” value is on record as “C (C≧75%)”.

As to `O=C1Nc2scc(-c3c(F)cccc3F)c2C(=O)C1(F)c1ccccc1` (stereo not shown) [No 122, 3-(2,6-difluorophenyl)-5-fluoro-5-phenyl-7H-thieno[2,3-b]pyridine-4,6-dione], the “Activity: Ratio between the % of control” value is reported as “C (C≧75%)”.

In the case of `O=C1Nc2scc(-c3ccc(Br)cc3O)c2C(=O)C1(F)c1ccccc1` (stereo not shown) [No 123, 3-(4-bromo-2-hydroxy-phenyl)-5-fluoro-5-phenyl-7H-thieno[2,3-b]pyridine-4,6-dione], the “Activity: Ratio between the % of control” value is “C (C≧75%)”.

The same experiment, now with this note: compound at 30 μM vs AMP at 200 μM; listed as 4.
In the case of `COc1cc(C)ccc1-c1csc2c1C(=O)C(F)(c1cccc(C#N)c1)C(=O)N2` (stereo not shown) [No 110, 3-[5-fluoro-3-(2-methoxy-4-methyl-phenyl)-4,6-dioxo-7H-thieno[2,3-b]pyridin-5-yl]benzonitrile], the “Activity: Ratio between the % of control” value is reported as “A (0%<A<50%)”.

Staying with this experiment, now noted: compound at 30 μM vs AMP at 200 μM; listed as 5.
For `COc1cc(C)ccc1-c1c(F)sc2c1C(=O)C(F)(c1cccc(C#N)c1)C(=O)N2` (stereo not shown) [No 111, 3-[2,5-difluoro-3-(2-methoxy-4-methyl-phenyl)-4,6-dioxo-7H-thieno[2,3-b]pyridin-5-yl]benzonitrile], the “Activity: Ratio between the % of control” value was “A (0%<A<50%)”.
